For one assay, the target named is T1, JAK3 (Homo sapiens, UniProt P52333).
T1 construct: recombinant purified GST-tagged catalytic domain for each enzyme; purchased Invitrogen M4290
In words: Jak Biochemical HTRF Assay (JAK3). Particulars: recombinant purified GST-tagged catalytic domain, [ATP] 2.9 μM, values given as range classes. The method, then:
(§1) Jak Biochemical HTRF Assay Protocol
(§2) The ability of compounds to inhibit the activity of JAK1, JAK2, JAK3, and Tyk2 was measured using a recombinant purified GST-tagged catalytic domain for each enzyme (Invitrogen JAK1 #M4290, JAK2 #M4290, JAK3 #M4290, Tyk2 #M4290) in an HTRF format biochemical assay. The reactions employed a common peptide substrate, LCB-EQEDEPEGDYFEWLW-NH2 (in-house). The basic assay protocol is as follows: First, 250 nL of diluted compounds in DMSO were dispensed into the wells of a dry 384-well Black plate (Greiner #781076) using a Labcyte Echo 555 acoustic dispenser. Subsequent reagent additions employed an Agilent Bravo. Next, 18 μL of 1.11× enzyme and 1.11× substrate in 1× assay buffer (Invitrogen kinase buffer #PV3189, 2 mM DTT, 0.05% BSA) were added to the wells and shaken and then preincubated for 30 minutes at room temperature to allow compound binding to equilibrate. After equilibration, 2 μL of 10×ATP in 1× assay buffer was added to initiate the kinase reaction and the plates were shaken and then incubated at room temperature for 120 minutes. At the end of the incubation, 20 μL of 2× stop buffer (streptavidin-Dylight 650 (Thermo #84547B/100 mL), Eu-tagged pY20 antibody (Perkin Elmer #AD0067), EDTA, HEPES, and Triton) was added to quench the reaction. Plates were shaken and centrifuged and then incubated 60 minutes at room temperature and then read on a Perkin Elmer Envision (λex=337 nm, λem=665 and 615 nm, TRF delay time=20 μs). HTRF signal=10,000*665 nm reading/615 nm reading. After normalization to untreated controls, the percent inhibition of the HTRF signal at each compound concentration was calculated. The plot of percent inhibition versus the log of compound concentration was fit with a 4-parameter dose response equation to calculate IC50 values.
(§3) Final reaction conditions were:
(§4) Examples of the instant invention were evaluated in JAK2 and JAK3 in vitro binding assays. Table 13 tabulates the biological data disclosed for the instant invention as a range of JAK2 and JAK3 IC50 values (A: IC50≦10 nM; B: 10 nM>IC50≦500 nM C: IC50>500 nM).
For orientation: In TR-FRET formats the signal depends on donor and acceptor labels being close together.

A further assay concerns the target T2, JAK2 (Homo sapiens, UniProt O60674).
T2 construct: recombinant purified GST-tagged catalytic domain for each enzyme; purchased Invitrogen M4290
In words: Jak Biochemical HTRF Assay (JAK2). The following applies: recombinant purified GST-tagged catalytic domain, [ATP] 8.5 μM, values given as range classes. The method, then:
as §1, §2, §3, §4

As a reminder, the IC50 is the concentration that inhibits the measured activity by half.

T2 sequence (O60674 849-1124 limits assumed): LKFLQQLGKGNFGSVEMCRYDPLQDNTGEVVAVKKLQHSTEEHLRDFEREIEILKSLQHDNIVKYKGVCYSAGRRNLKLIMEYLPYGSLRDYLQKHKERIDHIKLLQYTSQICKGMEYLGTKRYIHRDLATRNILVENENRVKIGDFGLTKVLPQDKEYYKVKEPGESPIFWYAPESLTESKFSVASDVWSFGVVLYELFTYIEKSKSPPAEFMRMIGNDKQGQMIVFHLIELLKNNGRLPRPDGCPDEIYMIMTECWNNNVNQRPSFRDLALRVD
T1 sequence (P52333 822-1111 limits assumed): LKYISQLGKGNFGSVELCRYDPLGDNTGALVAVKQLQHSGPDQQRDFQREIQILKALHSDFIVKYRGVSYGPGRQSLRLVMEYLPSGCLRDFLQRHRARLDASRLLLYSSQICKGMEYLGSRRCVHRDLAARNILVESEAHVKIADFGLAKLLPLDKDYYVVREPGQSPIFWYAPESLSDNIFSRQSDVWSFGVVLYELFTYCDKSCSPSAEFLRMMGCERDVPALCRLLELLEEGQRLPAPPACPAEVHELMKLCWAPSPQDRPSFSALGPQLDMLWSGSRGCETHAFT

With `Fc1cnc2[nH]cc(-c3nncc(N4CCCC4c4nccs4)n3)c2c1` (stereo not shown) [Example 1-11, 5-fluoro-3-{5-[2-(1,3-thiazol-2-yl)pyrrolidin-1-yl]-1,2,4-triazin-3-yl}-1H-pyrrolo[2,3-b]pyridine], the half-maximal inhibitory concentration (IC50) at JAK3 and at JAK2 was 10 to 500 nM throughout.
On to `CC(C)[C@H](Nc1cncc(-c2c[nH]c3ncc(OCCN4CCN(C)CC4)cc23)c1)C(=O)NCC(F)(F)F` [Example 2-17, N~2~-(5-{5-[2-(4-methylpiperazin-1-yl)ethoxy]-1H-pyrrolo[2,3-b]pyridin-3-yl}pyridin-3-yl)-N-(2,2,2-trifluoroethyl)valinamide], for which the IC50 on JAK3 is not above 10 nM; on JAK2, 10 to 500 nM.
For `CC(C)=CC(=O)NCc1cnc2[nH]cc(-c3cncc(N[C@H](C(=O)NCC(F)(F)F)C(C)C)c3)c2c1` [Example 10-8, N~2~-[5-(5-{[(3-methylbut-2-enoyl)amino]methyl}-1H-pyrrolo[2,3-b]pyridin-3-yl)pyridin-3-yl]-N-(2,2,2-trifluoroethyl)valinamide] the same measures were 10 to 500 nM and 10 to 500 nM.
In the case of `Cc1ncoc1C(=O)NCc1cnc2[nH]cc(-c3cncc(N[C@H](C(=O)NCC(F)(F)F)C(C)C)c3)c2c1` [Example 10-7, N~2~-{5-[5-({[(4-methyl-1,3-oxazol-5-yl)carbonyl]amino}methyl)-1H-pyrrolo[2,3-b]pyridin-3-yl]pyridin-3-yl}-N-(2,2,2-trifluoroethyl)valinamide], the concentration for half-maximal inhibition (IC50) is 10 to 500 nM at JAK3 and more than 500 nM at JAK2.
For `COCCOc1cnc2[nH]cc(-c3cncc(NC(C(=O)NCC(F)(F)F)C(C)C)c3)c2c1` (stereo not shown) [Example 2-2] the same measures were not above 10 nM and 10 to 500 nM.
For `CC(C)[C@@H](Nc1cncc(-c2c[nH]c3ncc(NS(C)(=O)=O)cc23)c1)C(=O)NCC(F)(F)F` [Example 5-5, N^2-(5-{5-[(methylsulfonyl)amino]-1H-pyrrolo[2,3-b]pyridin-3-yl}pyridin-3-yl)-N-(2,2,2-trifluoroethyl)-D-valinamide] the same measures were 10 to 500 nM and 10 to 500 nM.
In the case of `COc1cnc2[nH]cc(-c3nncc(N[C@@H](C(=O)NCC(F)(F)F)C(C)C)n3)c2c1` [Example 1-20, N~2~-[3-(5-methoxy-1H-pyrrolo[2,3-b]pylidin-3-yl)-1,2,4-triazin-5-yl]-N-(2,2,2-trifluoroethyl)-D-valinamide], the half-maximal inhibitory concentration (IC50) on JAK3 is not above 10 nM; on JAK2, 10 to 500 nM.
As to `C[C@@H](Nc1cncc(-c2c[nH]c3ncc(S(C)(=O)=O)cc23)c1)C(=O)NCC(F)(F)F` [Example 1-34, N~2~-{5-[5-(methylsulfonyl)-1H-pyrrolo[2,3-b]pyridin-3-yl]pyridin-3-yl}-N-(2,2,2-trifluoroethyl)-D-alaninamide], the figures for the IC50 at JAK3 and at JAK2 were not above 10 nM and more than 500 nM, respectively.
Take `CC(=O)NCc1cnc2[nH]cc(-c3cncc(N[C@H](C(=O)NCC(F)(F)F)C(C)C)c3)c2c1` [Example 10-5, N~2~-(5-{5-[(acetylamino)methyl]-1H-pyrrolo[2,3-b]pyridin-3-yl}pyridin-3-yl)-N-(2,2,2-trifluoroethyl)valinamide]: the IC50 at JAK3 is 10 to 500 nM; on JAK2, more than 500 nM.
As for `N#Cc1cnc2[nH]cc(-c3nncc(N[C@@H]4CCCC[C@@H]4C(=O)NCC(F)(F)F)n3)c2c1` [Example 1-22, (1S,2R)-2-{[3-(5-cyano-1H-pyrrolo[2,3-b]pyridin-3-yl)-1,2,4-triazin-5-yl]amino}-N-(2,2,2-trifluoroethyl)cyclohexane-carboxamide], the concentration for half-maximal inhibition (IC50) on JAK3 and at JAK2 was 10 to 500 nM throughout.
Take `CC(C)[C@H](Nc1cncc(-c2c[nH]c3ncc(OCc4cccnc4)cc23)c1)C(=O)NCC(F)(F)F` [Example 2-11, N~2~-{5-[5-(pyridin-3-ylmethoxy)-1H-pyrrolo[2,3-b]pyridin-3-yl]pyridin-3-yl}-N-(2,2,2-trifluoroethyl)valinamide]: the IC50 on JAK3 is not above 10 nM; on JAK2, 10 to 500 nM.
For `Clc1cnc2[nH]cc(-c3nncc(N4CCCC4c4nccs4)n3)c2c1` (stereo not shown) [Example 1-5, 5-chloro-3-{5-[2-(1,3-thiazol-2-yl)pyrrolidin-1-yl]-1,2,4-triazin-3-yl}-1H-pyrrolo[2,3-b]pyridine] the same measures were 10 to 500 nM and 10 to 500 nM.
Consider `CC(C)[C@H](Nc1cncc(-c2c[nH]c3ncc(OCCN4CCCC4=O)cc23)c1)C(=O)NCC(F)(F)F` [Example 2-10, N~2~-(5-{5-[2-(2-oxopyrrolidin-1-yl)ethoxy]-1H-pyrrolo[2,3-b]pyridin-3-yl}pyridin-3-yl)-N-(2,2,2-trifluoroethyl)valinamide], for which the 50% inhibitory concentration (IC50) at JAK3 was not above 10 nM; at JAK2, 10 to 500 nM.
For `CC(C)[C@H](Nc1cncc(-c2c[nH]c3ncc(NC(=O)CO)cc23)c1)C(=O)NCC(F)(F)F` [Example 5-7, N~2~-(5-{5-[(hydroxyacetyl)amino]-1H-pyrrolo[2,3-b]pyridin-3-yl}pyridin-3-yl)-N-(2,2,2-trifluoroethyl)valinamide] the same measures were not above 10 nM and 10 to 500 nM.
Take `CC(C)[C@@H](Nc1cnnc(-c2c[nH]c3ncc(F)cc23)n1)C(=O)NCC(F)(F)F` [Example 1-16, N~2~-[3-(5-fluoro-1H-pyrrolo[2,3-b]pyridin-3-yl)-1,2,4-triazin-5-yl]-N-(2,2,2-trifluoroethyl)-D-valinamide]: the figures for the concentration for half-maximal inhibition (IC50) at JAK3 and at JAK2 were not above 10 nM and 10 to 500 nM, respectively.
Take `C[C@H](Nc1cc(-c2c[nH]c3ncc(Cl)cc23)cnc1F)C(=O)NCC(F)(F)F` [Example 1-39, N~2~-[5-(5-chloro-1H-pyrrolo[2,3-b]pyridin-3-yl)-2-fluoropyridin-3-yl]-N-(2,2,2-trifluoroethyl)alaninamide]: the IC50 was not above 10 nM at JAK3 and 10 to 500 nM on JAK2.
For `CC(C)[C@H](Nc1cncc(-c2c[nH]c3ncc(OCCc4ccccc4)cc23)c1)C(=O)NCC(F)(F)F` [Example 2-7, N~2~-{5-[5-(2-phenylethoxy)-1H-pyrrolo[2,3-b]pyridin-3-yl]pyridin-3-yl}-N-(2,2,2-trifluoroethyl)valinamide] the same measures were not above 10 nM and 10 to 500 nM.
On to `CC(C)[C@@H](Nc1cncc(-c2c[nH]c3ncc(COC(C)(C)C)cc23)c1)C(=O)NCC(F)(F)F` [Example 9-2, N~2~-{5-[5-(tert-butoxymethyl)-1H-pyrrolo[2,3-b]pyridin-3-yl]pyridin-3-yl}-N-(2,2,2-trifluoroethyl)-D-valinamide], for which the half-maximal inhibitory concentration (IC50) at JAK3 and at JAK2 was 10 to 500 nM each time.
As to `CCC(=O)Nc1cnc2[nH]cc(-c3cncc(NC(C(=O)NCC(F)(F)F)C(C)C)c3)c2c1` (stereo not shown) [Example 5-6, N^2-{5-[5-(propanoylamino)-1H-pyrrolo[2,3-b]pyridin-7-ium-3-yl]pyridin-3-yl}-N-(2,2,2-trifluoroethyl)valinamide], the half-inhibitory concentration (IC50) is not above 10 nM on JAK3 and 10 to 500 nM at JAK2.
For `C/C=C/C(=O)NCc1cnc2[nH]cc(-c3cncc(N[C@H](C(=O)NCC(F)(F)F)C(C)C)c3)c2c1` [Example 10-4, N~2~-[5-(5-{[(2E)-but-2-enoylamino]methyl}-1H-pyrrolo[2,3-b]pyridin-3-yl)pyridin-3-yl]-N-(2,2,2-trifluoroethyl)valinamide] the same measures were not above 10 nM and 10 to 500 nM.
For `COc1cnc2[nH]cc(-c3cncc(N[C@H](C)C(=O)NCC(F)(F)F)c3)c2c1` [Example 1-31, N~2~-[5-(5-methoxy-1H-pyrrolo[2,3-b]pyridin-3-yl)pyridin-3-yl]-N-(2,2,2-trifluoroethyl)-D-alaninamide], the 50% inhibitory concentration (IC50) at JAK3 was not above 10 nM; on JAK2 it was 10 to 500 nM.
For `CC(C)[C@H](Nc1cncc(-c2c[nH]c3ncc(OCCN(C)C)cc23)c1)C(=O)NCC(F)(F)F` [Example 2-13, N~2~-(5-{5-[2-(dimethylamino)ethoxy]-1H-pyrrolo[2,3-b]pyridin-3-yl}pyridin-3-yl)-N-(2,2,2-trifluoroethyl)valinamide] the same measures were 10 to 500 nM and more than 500 nM.
Regarding `CC(C)[C@H](Nc1cncc(-c2c[nH]c3ncc(-c4cnn(C)c4)cc23)c1)C(=O)NCC(F)(F)F` [Example 8-2, N^2-{5-[5-(1-methyl-1H-pyrazol-4-yl)-1H-pyrrolo[2,3-b]pyridin-3-yl]pyridin-3-yl}-N-(2,2,2-trifluoroethyl)-L-valinamide], the IC50 at JAK3 and at JAK2 was 10 to 500 nM throughout.

The values above are taken from US9096598B2 (Merck Sharp & Dohme Corp., priority 2011, dated 2015).
